# Biological target: Cytochrome P450 3A4 (Homo sapiens, UniProt P08684)
# Test: log (1/Km) value for human liver microsome cytochrome P450 3A4
# Conditions: microsomes
# Sequence of Cytochrome P450 3A4 (P08684 whole entry): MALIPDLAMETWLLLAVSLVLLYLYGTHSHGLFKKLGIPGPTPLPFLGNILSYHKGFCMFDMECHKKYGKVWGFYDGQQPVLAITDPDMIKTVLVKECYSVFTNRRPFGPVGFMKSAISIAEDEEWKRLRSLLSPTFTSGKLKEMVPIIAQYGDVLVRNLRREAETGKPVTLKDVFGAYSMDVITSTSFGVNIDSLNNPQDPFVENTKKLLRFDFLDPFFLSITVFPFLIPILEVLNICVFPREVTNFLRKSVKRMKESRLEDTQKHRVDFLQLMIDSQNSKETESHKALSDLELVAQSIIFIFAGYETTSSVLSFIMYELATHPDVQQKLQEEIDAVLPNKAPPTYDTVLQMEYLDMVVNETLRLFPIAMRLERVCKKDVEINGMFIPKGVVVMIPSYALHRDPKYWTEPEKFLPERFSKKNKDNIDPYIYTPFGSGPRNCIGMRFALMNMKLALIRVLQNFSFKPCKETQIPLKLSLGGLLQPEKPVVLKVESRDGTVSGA
row,Structure (SMILES),Log 1/Km
1,C/C=C/c1ccc(OC)c(CN[C@H]2C3CCN(CC3)[C@H]2C(c2ccccc2)c2ccccc2)c1,-1.3424
2,O=C(N[C@H](/C=C/S(=O)(=O)c1ccccc1)CCc1ccccc1)[C@H](Cc1ccccc1)NC(=O)N1CCOCC1,-1.4843
3,"CN(C)c1ccc([C@H]2C[C@]3(C)[C@@H](CC[C@]3(O)CCCO)C3CCC4=CC(=O)CCC4=C32)cc1 (single isomer, unassigned) [ONAPRISTONE]",-1.2923
4,O=[N+]([O-])c1ccc2ccc3cccc4ccc1c2c34 [1-NITROPYRENE],-0.5185
5,CN(C)Cc1nnc2n1-c1ccc(Cl)cc1C(c1ccccc1)=NC2 [ADINAZOLAM],-1.9628
6,Cc1nnc2n1-c1ccc(Cl)cc1C(c1ccccc1)=NC2 [ALPRAZOLAM],-2.4232
7,CN(C)CCC=C1c2ccccc2CCc2ccccc21 [AMITRIPTYLINE],-1.8407
8,ClC(Cl)Br [BROMODICHLOROMETHANE],-1.4472
9,CCCCN1CCCC[C@@H]1C(=O)Nc1c(C)cccc1C [BUPIVACAINE],-2.0967
10,NC(=O)N1c2ccccc2C=Cc2ccccc21 [CARBAMAZEPINE],-2.6532
11,CC(C)(C)NCC(O)COc1cccc2c1CCC(=O)N2 (stereo not drawn) [CARTEOLOL],-1.8432
12,CN(C)CCCC1(c2ccc(F)cc2)OCc2cc(C#N)ccc21 (stereo not drawn) [CITALOPRAM],-2.4548
13,CC[C@H]1OC(=O)[C@H](C)[C@@H](O[C@H]2C[C@@](C)(OC)[C@@H](O)[C@H](C)O2)[C@H](C)[C@@H](O[C@@H]2O[C@H](C)C[C@H](N(C)C)[C@H]2O)[C@](C)(OC)C[C@@H](C)C(=O)[C@H](C)[C@@H](O)[C@]1(C)O [CLARITHROMYCIN],-1.6875
14,Nc1ccc(S(=O)(=O)c2ccc(N)cc2)cc1 [DAPSONE],-2.2304
15,CC(=O)O[C@@]12CO[C@@H]1C[C@H](O)[C@@]1(C)C(=O)[C@H](O)C3=C(C)[C@@H](OC(=O)[C@H](O)[C@@H](NC(=O)OC(C)(C)C)c4ccccc4)C[C@@](O)([C@@H](OC(=O)c4ccccc4)[C@H]21)C3(C)C.O.O.O [DOCETAXEL],-0.0414
16,CC[C@H]1OC(=O)[C@H](C)[C@@H](O[C@H]2C[C@@](C)(OC)[C@@H](O)[C@H](C)O2)[C@H](C)[C@@H](O[C@@H]2O[C@H](C)C[C@H](N(C)C)[C@H]2O)[C@](C)(O)C[C@@H](C)C(=O)[C@H](C)[C@@H](O)[C@]1(C)O [ERYTHROMYCIN],-1.7853
17,CCOc1ccc2ccc(=O)oc2c1 [ETHOXYCOUMARIN],-3.4771
18,CN1C(=O)CN=C(c2ccccc2F)c2cc([N+](=O)[O-])ccc21 [FLUNITRAZEPAM],-2.1892
19,C[C@]12CCC(=O)C=C1CC[C@@H]1[C@@H]2[C@@H](O)C[C@@]2(C)[C@H]1CC[C@]2(O)C(=O)CO [HYDROCORTISONE],-1.1818

row,Structure (SMILES),Log 1/Km
1,CCc1c2c(nc3ccc(OC(=O)N4CCC(N5CCCCC5)CC4)cc13)-c1cc3c(c(=O)n1C2)COC(=O)[C@]3(O)CC [IRINOTECAN],-1.2648
2,CN(C)c1ccc([C@H]2C[C@@]3(C)[C@@H](CC[C@@]3(O)/C=C\CO)[C@@H]3CCC4=CC(=O)CCC4=C32)cc1 [LILOPRISTONE],-0.9445
3,COc1ccc2[nH]c([S+]([O-])Cc3ncc(C)c(OC)c3C)nc2c1 (stereo not drawn) [OMEPRAZOLE],-1.6902
4,CC(=O)O[C@H]1C(=O)[C@@]2(C)[C@H]([C@H](OC(=O)c3ccccc3)[C@]3(O)C[C@H](OC(=O)[C@H](O)[C@@H](NC(=O)c4ccccc4)c4ccccc4)C(C)=C1C3(C)C)[C@]1(OC(C)=O)CO[C@@H]1C[C@@H]2O [PACLITAXEL],-1.2553
5,O=c1[nH]c2ccccc2n1C1CCN(CCCC(c2ccc(F)cc2)c2ccc(F)cc2)CC1 [PIMOZIDE],-0.7559
6,CO[C@H]1/C=C/O[C@@]2(C)Oc3c(C)c(O)c4c(c3C2=O)C2=NC3(CCN(CC(C)C)CC3)NC2=C(NC(=O)/C(C)=C\C=C\[C@H](C)[C@H](O)[C@@H](C)[C@@H](O)[C@@H](C)[C@H](OC(C)=O)[C@@H]1C)C4=O [RIFABUTIN],-1.0373
7,C/C=C1/C[C@@H](C)[C@@](C)(O)C(=O)OCC2=CCN3CC[C@@H](OC1=O)[C@@H]23 [SENECIONINE],-2.4772
8,CO[C@H]1C[C@@H]2CC[C@@H](C)[C@@](O)(O2)C(=O)C(=O)N2CCCC[C@H]2C(=O)O[C@H]([C@H](C)C[C@@H]2CC[C@@H](O)[C@H](OC)C2)CC(=O)[C@H](C)/C=C(\C)[C@@H](O)[C@@H](OC)C(=O)[C@H](C)C[C@H](C)/C=C/C=C/C=C/1C [SIROLIMUS],-0.9069
9,C=CC[C@@H]1/C=C(\C)C[C@H](C)C[C@H](OC)[C@H]2O[C@@](O)(C(=O)C(=O)N3CCCC[C@H]3C(=O)O[C@H](/C(C)=C/[C@@H]3CC[C@@H](O)[C@H](OC)C3)[C@H](C)[C@@H](O)CC1=O)[C@H](C)C[C@@H]2OC [TACROLIMUS ANHYDROUS],-0.792
10,CC/C(=C(\c1ccccc1)c1ccc(OCCN(C)C)cc1)c1ccccc1 [TAMOXIFEN],-1.9912
11,C[C@H](CCC(=O)NCCS(=O)(=O)O)[C@H]1CC[C@H]2[C@@H]3[C@H](O)C[C@@H]4C[C@H](O)CC[C@]4(C)[C@H]3CC[C@]12C [TAUROCHENODEOXYCHOLATE],-1.9542
12,CC(C)(C)c1cc(CC2SCNC2=O)cc(C(C)(C)C)c1O (stereo not drawn) [TAZOFELONE],-0.996
13,CS(=O)(=O)O.C[C@@H]1C[C@H]2[C@@H]3CCC4=CC(=O)C=C[C@]4(C)C3=CC[C@]2(C)[C@H]1C(=O)CN1CCN(c2cc(N3CCCC3)nc(N3CCCC3)n2)CC1 [TIRILAZAD MESYLATE],-0.2601
14,Cc1c(C)c2c(c(C)c1O)CCC(C)(COc1ccc(CC3SC(=O)NC3=O)cc1)O2 (stereo not drawn) [TROGLITAZONE],-2.7918
15,COc1ccc(C(CN(C)C)C2(O)CCCCC2)cc1 (stereo not drawn) [VENLAFAXINE],0.0899
16,CC[C@]1(O)C[C@@H]2CN(CCc3c([nH]c4ccccc34)[C@@](C(=O)OC)(c3cc4c(cc3OC)N(C)[C@H]3[C@@](O)(C(=O)OC)[C@H](OC(C)=O)[C@]5(CC)C=CCN6CC[C@]43[C@@H]65)C2)C1 [VINBLASTINE],-0.834
17,CC[C@]1(O)C[C@@H]2CN(CCc3c([nH]c4ccccc34)[C@@](C(=O)OC)(c3cc4c(cc3OC)N(C)[C@H]3[C@@](O)(C(N)=O)[C@H](O)[C@]5(CC)C=CCN6CC[C@]43[C@@H]65)C2)C1 [VINDESINE],-1.3927
18,CN1[C@@H]2CC[C@H]1C[C@@H](NC(=O)c1cc(Cl)cc3c1OC(C)(C)C3)C2 [ZATOSETRON],-2.3901
19,CC(c1cc2ccccc2s1)N(O)C(N)=O (stereo not drawn) [ZILEUTON],-2.1938
